According to ChEMBL document CHEMBL1201862, “PubChem BioAssay data set” (2004):
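48-hour exposure; five concentrations; linearly interpolated endpoints. GI50 marks 50% less growth.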 Activity calls are given as the source filed them. No stated cut-off is given here; in the data, active = GI50 up to about 1.1 µM and inactive = higher.

Tests used:
Assay in all cases: DTP human tumour cell line panel, 48 h
A498 = test system: A498
A549 = test system: A549
ACHN = test system: ACHN
CAKI-1 = test system: CAKI-1
CCRF-CEM = test system: CCRF-CEM
COLO 205 = test system: COLO 205
DLD-1 = test system: DLD-1
DMS-114 = test system: DMS-114
DMS-273 = test system: DMS-273
EKVX = test system: EKVX
HCC 2998 = test system: HCC 2998
HCT-116 = test system: HCT-116
HCT-15 = test system: HCT-15
HL-60 = test system: HL-60
HOP-18 = test system: HOP-18
HOP-62 = test system: HOP-62
HOP-92 = test system: HOP-92
HT-29 = test system: HT-29
IGROV-1 = test system: IGROV-1
KM-20L2 = test system: KM-20L2
KM12 = test system: KM12
LOX IMVI = test system: LOX IMVI
LXFL 529 = test system: LXFL 529
M14 = test system: M14
M19-MEL = test system: M19-MEL
MOLT-4 = test system: MOLT-4
Malme-3M = test system: Malme-3M
NCI-H226 = test system: NCI-H226
NCI-H23 = test system: NCI-H23
NCI-H460 = test system: NCI-H460
NCI-H522 = test system: NCI-H522
OVCAR-3 = test system: OVCAR-3
OVCAR-4 = test system: OVCAR-4
OVCAR-5 = test system: OVCAR-5
OVCAR-8 = test system: OVCAR-8
RPMI-8226 = test system: RPMI-8226
RXF 393 = test system: RXF 393
SF-268 = test system: SF-268
SF-295 = test system: SF-295
SF-539 = test system: SF-539
SK-MEL-28 = test system: SK-MEL-28
SK-MEL-2 = test system: SK-MEL-2
SK-MEL-5 = test system: SK-MEL-5
SK-OV-3 = test system: SK-OV-3
SN12C = test system: SN12C
SNB-19 = test system: SNB-19
SNB-75 = test system: SNB-75
SNB-78 = test system: SNB-78
SR = test system: SR
SW-620 = test system: SW-620
TK-10 = test system: TK-10
U-251 = test system: U-251
UACC-257 = test system: UACC-257
UACC-62 = test system: UACC-62
UO-31 = test system: UO-31
XF498 = test system: XF498

For `c1ccc([P+](Cc2csnn2)(c2ccccc2)c2ccccc2)cc1`, the GI50 (A498) was > 100 µM (inactive), the GI50 (A549) was > 100 µM (inactive) and the GI50 (ACHN) was > 100 µM (inactive). For the same compound, the GI50 (CAKI-1) was > 100 µM (inactive), the GI50 (CCRF-CEM) was > 100 µM (inactive) and the GI50 (COLO 205) was > 100 µM (inactive). For the same compound, the GI50 (DLD-1) was > 100 µM (inactive), the GI50 (DMS-114) was 64 µM (inactive) and the GI50 (DMS-273) was > 100 µM (inactive). For the same compound, the GI50 (EKVX) was > 100 µM (inactive), the GI50 (HCC 2998) was > 100 µM (inactive) and the GI50 (HCT-116) was > 100 µM (inactive). The GI50 (HCT-15) was greater than 100 µM, the GI50 (HL-60) was > 100 µM (inactive) and the GI50 (HOP-18) was > 100 µM (inactive). For the same compound, the GI50 (HOP-62) was > 100 µM (inactive), the GI50 (HOP-92) was 80 µM (inactive) and the GI50 (HT-29) was > 100 µM (inactive). For the same compound, the GI50 (IGROV-1) was > 100 µM (inactive), the GI50 (KM-20L2) was > 100 µM (inactive) and the GI50 (KM12) was > 100 µM (inactive). The GI50 (LOX IMVI) was > 100 µM (inactive), the GI50 (LXFL 529) was > 100 µM (inactive) and the GI50 (M14) was > 100 µM (inactive). For the same compound, the GI50 (M19-MEL) was > 100 µM (inactive), the GI50 (MOLT-4) was > 100 µM (inactive) and the GI50 (Malme-3M) was > 100 µM (inactive). The GI50 (NCI-H226) was > 100 µM (inactive), the GI50 (NCI-H23) was > 100 µM (inactive) and the GI50 (NCI-H460) was > 100 µM (inactive). For the same compound, the GI50 (NCI-H522) was > 100 µM (inactive), the GI50 (OVCAR-3) was > 100 µM (inactive) and the GI50 (OVCAR-4) was > 100 µM (inactive). For the same compound, the GI50 (OVCAR-5) was > 100 µM (inactive), the GI50 (OVCAR-8) was > 100 µM (inactive) and the GI50 (RPMI-8226) was > 100 µM (inactive). The GI50 (RXF 393) was 84.1 µM (inactive), the GI50 (SF-268) was > 100 µM (inactive) and the GI50 (SF-295) was > 100 µM (inactive). The GI50 (SF-539) was > 100 µM (inactive), the GI50 (SK-MEL-28) was > 100 µM (inactive) and the GI50 (SK-MEL-2) was > 100 µM (inactive). The GI50 (SK-MEL-5) was > 100 µM (inactive), the GI50 (SK-OV-3) was > 100 µM (inactive) and the GI50 (SN12C) was > 100 µM (inactive). For the same compound, the GI50 (SNB-19) was > 100 µM (inactive), the GI50 (SNB-75) was > 100 µM (inactive) and the GI50 (SNB-78) was > 100 µM (inactive). The GI50 (SR) was > 100 µM (inactive), the GI50 (SW-620) was > 100 µM (inactive) and the GI50 (TK-10) was > 100 µM (inactive). The GI50 (U-251) was > 100 µM (inactive), the GI50 (UACC-257) was > 100 µM (inactive) and the GI50 (UACC-62) was 57.8 µM (inactive). For the same compound, the GI50 (UO-31) was > 100 µM (inactive) and the GI50 (XF498) was > 100 µM (inactive).
